Test results: patent US20230212549A1, “COMPOUNDS COMPRISING A […] LIGAND AND USE THEREOF” (priority 2021, published 2023)
Numbered stars: 1 amine (or outer) side, 2 acyl side, 3 side chain; on linkers, the order of the positions; unused ones are H or OH. Bridge positions count the residues as written; N and C are the ends. Peptide text beside a SMILES is read from it. * marks the point of attachment. X35 = CC1(C)C(=CC=CC=CC2=[N+](CCCCS(=O)(=O)[O-])c3ccccc3C2(C)C)N(CCCCCC(=O)N2CCN(Cc3cc(C[*:1])cc(C[*:2])c3)CC2)c2ccccc21; X12 = O=C(O)CN1CCN(CC(=O)O)CCN(CC(=O)NCCCOCCOCCOCCCN*)CCN(CC(=O)O)CC1; mXylylene = c1cc(C[*:1])cc(C[*:2])c1; Suc = O=C(CCC(=O)[*:2])[*:1]; Hexanoyl = CCCCCC(=O)*

What was measured:
Human recombinant FAP = Human recombinant FAP (Homo sapiens, UniProt Q12884); test: FRET-based FAP protease activity assay; type: biochemical; parameters: purchased R&D systems 3715-SE
Sequence of Human recombinant FAP (Q12884 whole entry): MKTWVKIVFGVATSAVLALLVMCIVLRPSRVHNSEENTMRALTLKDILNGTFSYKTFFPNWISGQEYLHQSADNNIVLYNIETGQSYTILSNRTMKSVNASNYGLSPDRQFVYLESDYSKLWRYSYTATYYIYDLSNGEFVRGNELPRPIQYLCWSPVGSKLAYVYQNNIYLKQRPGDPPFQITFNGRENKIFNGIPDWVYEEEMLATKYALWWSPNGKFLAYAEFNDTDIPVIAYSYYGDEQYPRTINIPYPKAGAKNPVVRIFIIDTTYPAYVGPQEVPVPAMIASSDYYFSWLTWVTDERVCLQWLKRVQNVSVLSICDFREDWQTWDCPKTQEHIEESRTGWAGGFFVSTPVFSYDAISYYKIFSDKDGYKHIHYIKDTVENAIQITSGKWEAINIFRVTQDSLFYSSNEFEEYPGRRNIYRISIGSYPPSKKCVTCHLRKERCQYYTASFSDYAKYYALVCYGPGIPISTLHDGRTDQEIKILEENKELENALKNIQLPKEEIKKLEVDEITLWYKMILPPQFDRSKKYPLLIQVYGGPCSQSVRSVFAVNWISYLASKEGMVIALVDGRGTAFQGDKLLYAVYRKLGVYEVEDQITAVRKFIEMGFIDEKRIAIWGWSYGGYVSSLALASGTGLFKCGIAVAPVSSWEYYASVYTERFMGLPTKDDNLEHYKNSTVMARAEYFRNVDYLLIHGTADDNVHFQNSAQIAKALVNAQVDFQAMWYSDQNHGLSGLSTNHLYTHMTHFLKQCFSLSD

[1] = biological target: T1, FAP-expressing human WI-38 fibroblasts (Homo sapiens, UniProt Q12884); test: Competitive FACS binding assay
T1 construct: FAP-expressing human WI-38 fibroblasts (ECACC) were cultured in EMEM; host or cells: WI-38 human fibroblasts
T1 sequence (Q12884 whole entry): as above
Experimental: Cells were analyzed in an Attune NxT flow cytometer. […] […].
Cells were analyzed in an Attune NxT flow cytometer. […]

[2] = pIC50 Category (Activity), FRET-based FAP protease activity assay, recombinant human FAP, 37° C.

Row | Compound | IC50 (Human recombinant FAP; [2]) [nM] | IC50 [1] [nM] | further results
1 | CSCC[C@H](NC(=O)CCC(=O)NCCCOCCOCCOCCCNC(=O)CN1CCN(CC(=O)O)CCN(CC(=O)O)CCN(CC(=O)O)CC1)C(=O)N[C@H]1CSCc2cccc(c2)CSC[C@@H](C(=O)N[C@@H](CC(=O)O)C(=O)N[C@@H](Cc2c[nH]cn2)C(=O)N[C@@H](Cc2ccccc2)C(=O)N[C@@H](CCCNC(=N)N)C(=O)N[C@@H](CC(=O)O)C(N)=O)NC(=O)[C@H](Cc2ccccc2)NC(=O)[C@H](CCC(=O)O)NC(=O)[C@H]([C@@H](C)O)NC(=O)[C@@H]2CCCN2C(=O)[C@@H]2CCCN2C1=O [3BP-3169, DOTA-Ttds-Met-[Cys(3MeBn)-Pro-Pro-Thr-Glu-Phe-Cys]-Asp-His-Phe-Arg-Asp-NH2] ({X12-Suc}-MCPPTEFCDHFRD-NH2; linker 2-8 via mXylylene) | < 10 | < 10 | IC50 (Human recombinant FAP; pIC50 (highest activity categories), text on Table 9 categories (FACS binding and FAP activity assay)): < 10 nM
2 | CC(C)C[C@H](NC(=O)CCC(=O)NCCCOCCOCCOCCCNC(=O)CN1CCN(CC(=O)O)CCN(CC(=O)O)CCN(CC(=O)O)CC1)C(=O)N[C@H]1CSCc2cccc(c2)CSC[C@@H](C(=O)N[C@@H](CC(=O)O)C(=O)N[C@@H](Cc2c[nH]cn2)C(=O)N[C@@H](Cc2ccccc2)C(=O)N[C@@H](CCCNC(=N)N)C(=O)N[C@@H](CC(=O)O)C(N)=O)NC(=O)[C@H](Cc2ccccc2)NC(=O)[C@H](CCC(=O)O)NC(=O)[C@H]([C@@H](C)O)NC(=O)[C@@H]2CCCN2C(=O)[C@@H]2CCCN2C1=O [3BP-3172, DOTA-Ttds-Leu-[Cys(3MeBn)-Pro-Pro-Thr-Glu-Phe-Cys]-Asp-His-Phe-Arg-Asp-NH2] ({X12-Suc}-LCPPTEFCDHFRD-NH2; linker 2-8 via mXylylene) | < 10 | < 10 | 
3 | CCCCCC(=O)N[C@H]1CSCc2cc(cc(CN3CCN(C(=O)CCCCCN4C(=CC=CC=CC5=[N+](CCCCS(=O)(=O)[O-])c6ccccc6C5(C)C)C(C)(C)c5ccccc54)CC3)c2)CSC[C@@H](C(=O)N[C@@H](CC(=O)O)C(N)=O)NC(=O)[C@H](Cc2ccccc2)NC(=O)[C@H](CCC(N)=O)NC(=O)[C@H]([C@@H](C)O)NC(=O)[C@@H]2CCCN2C(=O)[C@@H]2CCCN2C1=O [3BP-3693, Hex-[Cys(tMeBn(Cy5SO3-PP))-Pro-Pro-Thr-Gln-Phe-Cys]-Asp-NH2] (Hexanoyl-CPPTQFCD-NH2; linker 1-7 via X35) | 10 to 79.4 |  | 
4 | CCCCCC(=O)N[C@H]1CSCc2cc(CSCCNC(=O)CCCCCN3C(=CC=CC=CC4=[N+](CCCCS(=O)(=O)[O-])c5ccccc5C4(C)C)C(C)(C)c4ccccc43)cc(c2)CSC[C@@H](C(=O)O)NC(=O)[C@H](Cc2ccccc2)NC(=O)[C@H](CCC(N)=O)NC(=O)[C@H]([C@@H](C)O)NC(=O)[C@@H]2CCCN2C(=O)[C@@H]2CCCN2C1=O [3BP-3694, Hex-[Cys(tMeBn(Cy5SO3-AET))-Pro-Pro-Thr-Gln-Phe-Cys]-OH] | 100 to 794 |  | 
5 | CCCCCC(=O)N[C@H]1CSCc2cc(CSCCNC(=O)CN3CCN(CC(N)=O)CCN(CC(N)=O)CCN(CC(N)=O)CC3)cc(c2)CSCC(C(=O)O)NC(=O)[C@H](Cc2ccccc2)NC(=O)[C@H](CCC(N)=O)NC(=O)[C@H]([C@@H](C)O)NC(=O)[C@@H]2CCCN2C(=O)[C@@H]2CCCN2C1=O (stereo partly drawn) [3BP-5323, Hex-[Cys(tMeBn(DOTAM-AET))-Pro-Pro-Thr-Gln-Phe-Cys]-OH] |  |  | IC50 (Human recombinant FAP; pIC50 Category (activity), Recombinant human FAP): < 10 nM
6 | CCCCCC(=O)N[C@H]1CSCc2cc(CSCCNC(=O)COc3ccc4nc3CN(CC(=O)O)CCN(CC(=O)O)CCN(CC(=O)O)C4)cc(c2)CSC[C@@H](C(=O)O)NC(=O)[C@H](Cc2ccccc2)NC(=O)[C@H](CCC(N)=O)NC(=O)[C@H]([C@@H](C)O)NC(=O)[C@@H]2CCCN2C(=O)[C@@H]2CCCN2C1=O [3BP-5363, Hex-[C(tMeBn(LaAcPCTA-AET))-PPTQFC]-OH] |  |  | pIC50 Category (activity) (Human recombinant FAP; Recombinant human FAP): B (category B for pIC50 values between 7.1 and 8.0)
